From patent US20110034472A1, “Novel Compounds for Treatment of Cancer and Disorders Associated With Angiogenesis Function” (UNIVERSITY OF SOUTHERN CALIFORNIA, priority 2004, published 2011)

Tests used:
[1] = tested on: DU145 cells; experiment: Cell cycle analysis (propidium iodide), SC21, DU145; assay type: cell-based, human; settings: 72 hours of exposure, IC50
Experimental: FIG. 17 depicts flow cytometric analysis of the cell cycle profiles of DU145, PC3, MDA-MB-435, and HEY cells treated with SC21. […] SC21 induced a G0/G1 phase arrest in DU145 and MDA-MB-435 cells and S phase arrest in PC3 and HEY cells.
Cell cycle perturbations induced by SC21 and camptothecin (CPT) were analyzed by propidium iodide DNA staining. Briefly, exponentially growing PC3 and DU145 cells were treated with different doses of the drug for 24, 48, and 72 hours. At the end of each treatment time, cells were collected and washed with PBS after a gentle centrifugation at 200×g for 5 minutes. Cells were thoroughly resuspended in 0.5 mL of PBS and fixed in 70% ethanol for at least 2 hours at 4° C. Ethanol-suspended cells were then centrifuged at 200×g for 5 minutes and washed twice in PBS to remove residual ethanol. For cell cycle analysis, the pellets were suspended in 1 mL of PBS containing 0.02 mg/mL of propidiumiodide, 0.5 mg/mL of DNase-free RNase A and 0.1% of Triton X-100 and incubated at 37° C. for 30 minutes. Cell cycle profiles were obtained using a FACScan flowcytometer (Becton Dickinson, San Jose, Calif.) and data were analyzed by ModFit LT software (Verity Software House, Inc., Topsham, Me.). […]

[2] = tested on: DU145 cells; experiment: Annexin V/propidium iodide apoptosis assay, DU145; assay type: cell-based, human; settings: 72 hours exposure, IC80
Experimental: FIG. 19 illustrates apoptosis analysis of DU145 cells treated with SC21 or CPT (IC80). Cells were treated with SC21 or CPT for 24, 48, and 72 h, harvested, stained with annexin V/propidium iodide and analyzed by flow cytometry. Untreated control cells (24 and 48 h) were also included in the analysis. Annexin VFITC signals are recorded in FL1-H or […] and propidium iodide in FL2-H or […]. Cells in the bottom left quadrant (annexin V-negative, propidium iodide-negative) are viable, whereas cells in the right quadrant (annexin V-positive, propidium iodide-negative) are in the early stages of apoptosis, and the cells in the top right quadrant (annexin V-positive, propidium iodide-positive) are in later stages of apoptosis and necrosis.
To quantify drug-induced apoptosis, annexin V/propidium iodide staining was done followed by flow cytometry. […] The resulting fluorescence (FLH-1 channel for green fluorescence and FLH-2 channel for red fluorescence) was measured by flow cytometry using a FACScan flow cytometer (Becton Dickinson).
SC21 and CPT-induced apoptosis was measured by flow cytometry (FIG. 18). SC21 at an IC80 dose for 72 hours induced 12% to 15% apoptosis as measured by calculating sub-G0/G1 population. […] This event precedes nuclear breakdown, DNA fragmentation, the appearance of most apoptosis-associated molecules, and is readily measured by annexin V binding assay. […]

[3] = tested on: panel of seven human cancer cell lines; experiment: MTT-assay, panel of seven human cancer cell lines; assay type: cell-based; settings: read-out: CC50 dose range
Experimental: The sensitivity of a panel of seven human cancer cell lines to SC144 was assessed by MTT-assay. […] The sensitivity towards SC144 was time- and dose-dependent.

[4] = tested on: HL60 leukemia cells; experiment: Sensitivity of various cancer cells to SC144, HL60; assay type: cell-based; settings: Homo sapiens, HL-60
Excerpt: (§1) The studies were expanded to other cell lines. […] Subnanomolar to low nanomolar potency was also observed in HCT-116 and HT29 colon cancer cell lines (Table 2).

[5] = tested on: SF-268 CNS cancer cells; experiment: Sensitivity of various cancer cells to SC144, SF-268; assay type: cell-based; settings: Homo sapiens
Excerpt: as §1

[6] = tested on: SKOV3 ovarian cancer cells; experiment: Sensitivity of various cancer cells to SC144, SKOV3; assay type: cell-based; settings: Homo sapiens, SK-OV-3
Excerpt: as §1

[7] = tested on: HCT 116 p53^−/− colon cancer cells; experiment: MTT cytotoxicity assay, HCT 116 p53-/-; assay type: cell-based, human; settings: Homo sapiens, 72 h
Excerpt: Human breast cancer cells MDA-MB-435 and colon cancer HT29, p53 mutant were purchased from the American Type Cell Culture (Manassas, Va.). The HCT116 P53^+/+ and HCT116 P53^−/− cells were kindly provided by Dr. Bert Vogelstein (Johns Hopkins Medical Institutions, Baltimore, Md.). Human prostate cancer cells, LNCaP, were kindly provided by Richard Cote (University of Southern California Keck School of Medicine). Cells were maintained as monolayer cultures in RPMI 1640 media supplemented with 10% fetal bovine serum (Gemini-Bioproducts, Woodland, Calif.) and 2 mmol/L L-glutamine at 37° C. in a humidified atmosphere of 5% CO2. To remove the adherent cells from the flask for passaging and counting, cells were washed with PBS without calcium or magnesium, incubated with a small volume of 0.25% trypsin-EDTA solution (Sigma-Aldrich, St. Louis, Mo.) for 5-10 min, and washed with culture medium and centrifuged. All experiments were performed using cells at exponential growth stage. Cells were routinely checked for mycoplasma contamination using a PCR-based assay (Stratagene, Cambridge, UK).
Cytotoxicity was assessed by a 3-(4,5-dimethylthiazol-2-yl)-2,5-diphenyltetrazolium bromide (MTT) assay as previously described.^9 Briefly, cells were seeded in 96-well microtiter plates and allowed to attach. Cells were subsequently treated with continuous exposure to the corresponding drug for 72 h. An MTT solution (at a final concentration of 0.5 mg/mL) was added to each well, and cells were incubated for 4 h at 37° C. After removal of the medium, DMSO was added and the absorbance was read at 570 nm. All assays were done in triplicate. The IC50 was then determined for each drug from a plot of log (drug concentration) versus percentage of cells killed.

| Compound | cells retained in G0/G1 phase [1] [%] | early plus late apoptotic cells [2] [%] | CC50 [3] [µM] | CC50 [4] [µM] | CC50 [5] [µM] | CC50 [6] [µM] | IC50 [7] [µM] |
| --- | --- | --- | --- | --- | --- | --- | --- |
| O=C(NNC(=O)c1ccccc1O)C1=CC2C=CC=CC2C=C1O (stereo not shown) [SC21] | 65 | 72 | – | – | – | – | – |
| O=C(NNc1nc2cc(F)ccc2n2cccc12)c1cnccn1 [SC144, Pyrazine-2-carboxylic acid N′-(7-fluoro-pyrrolo[1,2-a]quinoxalin-4-yl)-hydrazide] | – | – | 0.7 to 10 | 0.27 | 0.3 | 0.12 | 0.9 ± 0.04 |
